Where a name gives a salt, the structure may show the parent alone. Read-outs that look alike come from different tables or passages of the source. Each block holds one compound with its values, some of them ahead of it.
What was measured:
[1] = Phase 1 study, food effect (fed and fasted state), single oral dose; format: in vivo, healthy subjects (humans); details: human, plasma; for AUC(0-t): composition No. 27 in capsules, healthy male subjects, read-out: AUC0-24 h
From the text: Phase 1 study of 2-((5Z,8Z,11Z,14Z,17Z)-icosa-5,8,11,14,17-pentaenyloxy)butanoic acid (API) assessing the safety, tolerability, PK, and pharmacodynamics (PD) have been performed in healthy individuals. Each group consisted of 6 healthy subjects. The formulation according to the present disclosure included Tween 20 (40 wt %), Miglyol 812N (30 wt %) and API (30 wt %). The API was mixed with other components of the composition as described under “General procedures.” The formulation of this example corresponds to composition No. 27 of Example 1. The premix was filled into capsules and administered orally to humans.

[2] = Phase 1 study, escalating single oral doses 5 to 600 mg; format: in vivo, healthy subjects (humans); details: single oral doses between 5 to 600 mg, healthy subjects
Procedure: Phase 1 study of 2-((5Z,8Z,11Z,14Z,17Z)-icosa-5,8,11,14,17-pentaenyloxy)butanoic acid (API) assessing the safety, tolerability, PK, and pharmacodynamics (PD) has been performed in healthy individuals. Each dose group consisted of 6 healthy subjects. The initial dose of API received was 5 mg, and the maximum dose of API was 600 mg. The API was mixed with other components of the formulations according to Table 20, the premix was filled into capsules and administered orally to humans.
A minimum of 10 days intervene before each dose escalation. Escalating doses are administered to the groups sequentially.

[3] = Phase 1 study, individual variability in pharmacokinetics at 600 mg; format: in vivo, healthy subjects (humans); details: single oral dose 600 mg, composition No. 27, healthy male subjects
Procedure: Phase 1 study of 2-((5Z,8Z,11Z,14Z,17Z)-icosa-5,8,11,14,17-pentaenyloxy)butanoic acid (API) assessing the safety, tolerability, PK, and pharmacodynamics (PD) has been performed in healthy individuals. Each dose group consisted of 6 healthy subjects. The initial dose API received was 5 mg, and the maximum dose was 600 mg. Data presented here are with an API dose of 600 mg. This formulation included Tween 20 (40 wt %), Miglyol 812N (30 wt %) and API (30 wt %). The API was mixed with other components of the composition as described under “General procedures.” The formulation for this example corresponds to composition No. 27 of Example 1. A minimum of 10 days intervene before each dose escalation. Escalating doses were administered to the groups sequentially.

[4] = Phase 1 study, pharmacokinetics in male and female, 300 mg b.i.d for 14 days; format: in vivo, healthy subjects (humans); details: for AUC / Cmax: human, plasma, oral, composition No. 27; for AUC: read-out: Geometric mean AUC0-τ; for Cmax: read-out: Geometric mean Cmax
Procedure: Phase 1 study of 2-((5Z,8Z,11Z,14Z,17Z)-icosa-5,8,11,14,17-pentaenyloxy)butanoic acid (API) assessing the safety, tolerability, PK, and pharmacodynamics (PD) has been performed in healthy individuals. Each dose group consisted of 6 healthy subjects. An API dose of 300 mg b.i.d was given orally to males and females for 14 consecutive days. The formulation given included Tween 20 (40 wt %), Miglyol 812N (30 wt %) and API (30 wt %). The API was mixed with other components in the formulation as described under “General procedures.” The formulation of this example corresponds to composition No. 27 of Example 1.

[5] = Solubility of the API in water; format: physicochemical
From the text: (§1) Thus, low bioavailability is expected.

Permeability of the API = format: in vitro ADME
From the text: as §1

[6] = tested on: APOE*3Leiden.CETP transgenic mouse model; details: cited from earlier work
[7] = Solubility of salts in surfactants and co-solvents; format: physicochemical
From the text: Salts prepared from monovalent counter ions are all highly soluble in surfactants according to the present disclosure and excellent pre-concentrates and SMEDDS can be prepared.

[8] = male, po, 100 mg, Fasted, single oral dose 100 mg API
[9] = male, po, 100 mg, Fed, single oral dose 100 mg API

Tmax ([1]; both sexes, oral, healthy male and female subjects receiving single doses, read-out: mean Tmax): 1 to 2 h
Cmax [1, 8]: 2800 ng/mL
half-life [1, 8]: 382 ± 188 min
AUC(0-t) [1, 8]: 14000 ng·h/mL
Tmax ([1]; male, po, 100 mg, Fasted, single oral dose 100 mg API, read-out: Tmax): 1.4 h
Cmax [1, 9]: 2700 ng/mL
half-life [1, 9]: 377 ± 128 min
AUC(0-t) [1, 9]: 15000 ng·h/mL
Tmax ([1]; male, po, 100 mg, Fed, single oral dose 100 mg API, read-out: Tmax): 3.6 h
increase of exposure (Cmax and AUC0-24) with dose [2]: higher than dose-proportional manner
% CV (relative variability) of AUC0-24 [3]: ~15%
% CV (relative variability) of Cmax [3]: approximately 10%
AUC Ratio E/M ([4]; Day 14, 300 mg b.i.d): 0.937
Cmax Ratio E/M ([4]; Day 14, 300 mg b.i.d): 1.12
AUC ([4]; Female, Day 14, 300 mg b.i.d): 75800 ng·h/mL
Cmax ([4]; Female, Day 14, 300 mg b.i.d): 15800 ng/mL
AUC ([4]; Male, Day 14, 300 mg b.i.d): 80900 ng·h/mL
Cmax ([4]; Male, Day 14, 300 mg b.i.d): 14100 ng/mL
solubility in water [5]: low solubility in water
permeability (Permeability of the API): low permeability
SMILES: CC/C=C\C/C=C\C/C=C\C/C=C\C/C=C\CCCCOC(CC)C(=O)O (stereo not shown) [API, 2-((5Z,8Z,11Z,14Z,17Z)-icosa-5,8,11,14,17-pentaenyloxy)butanoic acid]
gender differences in pharmacokinetics (Cmax, AUC0-24) ([4]; 300 mg b.i.d, males and females, 14 consecutive days): no gender differences in pharmacokinetics
HDL cholesterol as compared to a control [6]: increased
atherosclerotic lesion areas in the aorta as compared to a control [6]: decreased
total cholesterol as compared to a control [6]: decreased

solubility in surfactants and co-solvents [7]: medium solubility
SMILES: CC/C=C\C/C=C\C/C=C\C/C=C\C/C=C\CCCCOC(CC)C(=O)O (stereo not shown) [magnesium salt, magnesium 2-((5Z,8Z,11Z,14Z,17Z)-icosa-5,8,11,14,17-pentaenyloxy)butanoate]
